The record followed here is US4215143A (Mitsui Toatsu Chemicals, Incorporated, priority 1978, dated 1980).

For assay [1], the system named is Shay's Ulcer. In words: Shay's Ulcer (pylorus ligation), anti-ulcer effect. Conditions: p.o., 12 hours, vs control group. In kind it is in vivo, Male rats of the Wistar strain. As for the experimental part: The anti-ulcer effect of some compounds of this invention was evaluated with regard to various types of experimental gastric and duodenal ulcers. The method of evaluation for each type of ulcer is outlined below. Male rats of the Wistar strain, 7 or 8 weeks of age, were used in groups of ten. After 48 hours of fasting, the pyloric part of the stomach was ligated under ether anesthesia. Immediately after the operation, a certain amount of a compound to be tested was orally administered to each animal of a group. After 12 hours, the degree of ulceration occurring in the anterior part of the stomach was rated and regarded as an ulcer index (U.I.). Control rats were treated in the same manner as described above, except that they received no compounds to be tested. The results given in Table 1 are expressed in terms of the percentage of inhibition based on the U.I. obtained in the control group.

Assay [2] deals with Stress Ulcer. In words: Stress Ulcer (water immersion restraint), anti-ulcer effect. In kind it is in vivo, Male rats of the Wistar strain. The conditions noted are these: 250 mg/kg, p.o.; stress for 16 hours; vs control group. The protocol:
The anti-ulcer effect of some compounds of this invention was evaluated with regard to various types of experimental gastric and duodenal ulcers. The method of evaluation for each type of ulcer is outlined below. Male rats of the Wistar strain, 8 weeks of age, were used in groups of ten. Each animal was immobilized in a stressing cage as developed by Takagi et al., immersed in water at 23° C. to the level of the xiphoid process, and thereby subjected to stress for 16 hours. Thereafter, the stomach was excised. The length of the ulcer formed in the glandular part of the stomach was measured and regarded as an ulcer index (U.I.). A certain amount of a compound to be tested was orally administered just before subjecting the animal to stress. The results are also expressed in terms of the percentage of inhibition based on the U.I. obtained in the control group receiving no compounds to be tested.

Assay [3] concerns Aspirin Ulcer. The experiment in a line: Aspirin Ulcer, anti-ulcer effect. Conditions: p.o., aspirin 250 mg/kg oral, 6 hours. In kind it is in vivo, Male rats of the Donryu strain. The protocol: (§1) The anti-ulcer effect of some compounds of this invention was evaluated with regard to various types of experimental gastric and duodenal ulcers. The method of evaluation for each type of ulcer is outlined below.
Male rats of the Donryu strain, 10 or 11 weeks of age, were used in groups of ten. After 24 hours of fasting, a certain amount of a compound to be tested was orally administered to each animal of a group. Ten minutes later, aspirin was orally administered in a dose of 250 mg/kg. After 6 hours, the size of the ulcer formed in the glandular part of the stomach was rated by visual inspection and regarded as an ulcer index (U.I.). The results are also expressed in terms of the percentage of inhibition based on the U.I. obtained in the control group receiving no compounds to be tested.

The subject of assay [4] is Acetic Acid Ulcer. The experiment in a line: Acetic Acid Ulcer, healing promotion effect. In kind it is in vivo, Male rats of the Wistar strain. Conditions: p.o., twice a day for 7 days. The protocol: as §1
Male rats of the Wistar strain, 6 weeks of age, were used in groups of ten. Under ether anesthesia, each animal was laparotomized, a round frame (with an inside diameter of 5 mm) made of stainless steel was applied to the anterior wall of the stomach, and 100% acetic acid was poured into the frame. After 30 seconds, the acetic acid was removed and the abdomen was closed. Starting on the 7th day after the operation, a certain amount of a compound to be tested was orally administered twice a day to each animal of a group for a period of 7 days. Thereafter, the degree of healing of the ulcer was rated by visual insepction and regarded as an ulcer index (U.I.). The results are also expressed in terms of the percentage of healing based on the U.I. obtained in the control group receiving no compounds to be tested.

Assay [5] deals with Gastric Juice Secretion. The experiment in a line: Effect on gastric juice secretion in pylorus-ligated rats. In kind it is in vivo, Male rats of the Donryu strain. Conditions: 250 mg/kg, p.o.; 4 hours; control 4.9 ± 0.4; * significant vs control at the 5% level. As for the experimental part: (§2) Male rats of the Donryu strain, 11 weeks of age, were used in groups of ten. After 24 hours of fasting, the pylorus was ligated. Four hours later, the gastric juice was collected and its volume was measured. Then, its acidity was determined by titrating an aliquot of the gastric juice with 0.05 N sodium hydroxide. Further, the activity of pepsin was determined by Anson's method. A definite amount (250 mg/kg) of a compound to be tested was orally administered immediately after the ligation of the pylorus.

The test system of assay [6] is Gastric Juice Acidity. The experiment in a line: Effect on gastric juice acidity in pylorus-ligated rats. In kind it is in vivo, Male rats of the Donryu strain. Conditions: 250 mg/kg, p.o.; 4 hours; control 92.5 ± 3.7; * significant vs control at the 5% level. As for the experimental part:
as §2

In assay [7] the test system is pepsin. The experiment in a line: Effect on pepsin activity in pylorus-ligated rats (Anson's method). In kind it is in vivo, Male rats of the Donryu strain. The conditions noted are these: 250 mg/kg, p.o.; 4 hours; control 7.4 ± 0.5; ** significant vs control at the 1% level. As for the experimental part: as §2

Take “inositol hexasulfate sodium aluminum salt”: the “percentage of inhibition (ulcer index, Shay's Ulcer)” value in assay [1] (100 mg/kg) was 87 percentage; in assay [1] (250 mg/kg) it was 90 percentage. Moreover, the “percentage of inhibition (ulcer index, Stress Ulcer)” value in assay [2] worked out at 30 percentage. Further, the “percentage of inhibition (ulcer index, Aspirin Ulcer)” value is listed as 42 percentage in assay [3] (100 mg/kg) and 49 percentage in assay [3] (250 mg/kg). The “percentage of healing (ulcer index, Acetic Acid Ulcer)” value is recorded as 23 percentage in assay [4] (100 mg/kg) and 28 percentage in assay [4] (250 mg/kg). Also, the “Amount of Gastric Juice Secreted” value in assay [5] is 3.6 ± 0.4 mL. Besides, the “Acidity of Gastric Juice” value in assay [6] was 61.1 ± 11.4 mEq/l. Further, the “Activity of Pepsin” value in assay [7] worked out at 5.1 ± 0.5 mg/mL.
As for inositol hexasulfate aluminum salt, the “Amount of Gastric Juice Secreted” value in assay [5] was 3.6 ± 0.4 mL. Also, the “Acidity of Gastric Juice” value in assay [6] is listed as 57.8 ± 12.9 mEq/l. In addition, the “Activity of Pepsin” value in assay [7] is 4.8 ± 0.4 mg/mL.
